# Values of other authors, collected in PubChem BioAssay AID1259409 (Chemical Carcinogenesis Research Information System (CCRIS), 2018).
# Test system: rodent chemically induced tumor inhibition, incidence and multiplicity
# Test: CCRIS tumor inhibitor studies
compound,measurement,setting,value
C=C1CC[C@H](O)C/C1=C/C=C1\CCC[C@]2(C)[C@@H]([C@H](C)CC[C@@H](O)C(C)(C)O)CC[C@@H]12,"tumour outcome (control, treated, inhibition, significance)","Carcinogen: N-N-DIETHYLNITROSAMINE [55-18-5], N-METHYL-N-NITROSOUREA [684-93-5], N,N'-DIMETHYLHYDRAZINE [540-73-8], N-BUTYL-N-(4-HYD, Carcinogen: N-N-DIETHYLNITROSAMINE [55-18-5], N-METHYL-N-NITROSOUREA [684-93-5], N,N'-DIMETHYLHYDRAZINE [540-73-8], N-BUTYL-N-(4-HYD, Dose [Inhibitor]: 1 PPM IN DIET FOR 25 WK BEGINNING 1 WK POST LAST CARCINOGEN DOSE (STUDY DURATION: 30 WK), Route [Inhibitor]: ORAL, Species: RAT, Strain/Sex: F344/MALE, Target Tissue: Type of Lesion: COLON: ADENOCARCINOMA, Dose [Carcinogen]: 100 MG/KG BW DEN IP ONCE ON DAY 0, 20 MG/KG BW MNU IP 4X ON DAYS 2, 5, 8, 11, 40 MG/KG BW DMH SC ON DAYS 14, 17, 20, 23;, Dose [Carcinogen]: 100 MG/KG BW DEN IP ONCE ON DAY 0, 20 MG/KG BW MNU IP 4X ON DAYS 2, 5, 8, 11, 40 MG/KG BW DMH SC ON DAYS 14, 17, 20, 23;, Promoter: NONE","14/18 (77.8%), 10/14 (71.4%), 8%, not significant"
same,"tumour outcome (control, treated, inhibition, significance)","Carcinogen: N-N-DIETHYLNITROSAMINE [55-18-5], N-METHYL-N-NITROSOUREA [684-93-5], N,N'-DIMETHYLHYDRAZINE [540-73-8], N-BUTYL-N-(4-HYD, Carcinogen: N-N-DIETHYLNITROSAMINE [55-18-5], N-METHYL-N-NITROSOUREA [684-93-5], N,N'-DIMETHYLHYDRAZINE [540-73-8], N-BUTYL-N-(4-HYD, Dose [Inhibitor]: 1 PPM IN DIET FOR 25 WK BEGINNING 1 WK POST LAST CARCINOGEN DOSE (STUDY DURATION: 30 WK), Route [Inhibitor]: ORAL, Species: RAT, Strain/Sex: F344/MALE, Target Tissue: Type of Lesion: COLON: ADENOMA, Dose [Carcinogen]: 100 MG/KG BW DEN IP ONCE ON DAY 0, 20 MG/KG BW MNU IP 4X ON DAYS 2, 5, 8, 11, 40 MG/KG BW DMH SC ON DAYS 14, 17, 20, 23;, Dose [Carcinogen]: 100 MG/KG BW DEN IP ONCE ON DAY 0, 20 MG/KG BW MNU IP 4X ON DAYS 2, 5, 8, 11, 40 MG/KG BW DMH SC ON DAYS 14, 17, 20, 23;, Promoter: NONE","6/18 (33.3%), 3/14 (21.4%), 36%, not significant"
same,"tumour outcome (control, treated, inhibition, significance)","Carcinogen: N-N-DIETHYLNITROSAMINE [55-18-5], N-METHYL-N-NITROSOUREA [684-93-5], N,N'-DIMETHYLHYDRAZINE [540-73-8], N-BUTYL-N-(4-HYD, Carcinogen: N-N-DIETHYLNITROSAMINE [55-18-5], N-METHYL-N-NITROSOUREA [684-93-5], N,N'-DIMETHYLHYDRAZINE [540-73-8], N-BUTYL-N-(4-HYD, Dose [Inhibitor]: 5 PPM IN DIET FOR 25 WK BEGINNING 1 WK POST LAST CARCINOGEN DOSE (STUDY DURATION: 30 WK), Route [Inhibitor]: ORAL, Species: RAT, Strain/Sex: F344/MALE, Target Tissue: Type of Lesion: COLON: ADENOCARCINOMA, Dose [Carcinogen]: 100 MG/KG BW DEN IP ONCE ON DAY 0, 20 MG/KG BW MNU IP 4X ON DAYS 2, 5, 8, 11, 40 MG/KG BW DMH SC ON DAYS 14, 17, 20, 23;, Dose [Carcinogen]: 100 MG/KG BW DEN IP ONCE ON DAY 0, 20 MG/KG BW MNU IP 4X ON DAYS 2, 5, 8, 11, 40 MG/KG BW DMH SC ON DAYS 14, 17, 20, 23;, Promoter: NONE","14/18 (77.8%), 5/14 (35.7%), 54%, p<0.05"
same,"tumour outcome (control, treated, inhibition, significance)","Carcinogen: N-N-DIETHYLNITROSAMINE [55-18-5], N-METHYL-N-NITROSOUREA [684-93-5], N,N'-DIMETHYLHYDRAZINE [540-73-8], N-BUTYL-N-(4-HYD, Carcinogen: N-N-DIETHYLNITROSAMINE [55-18-5], N-METHYL-N-NITROSOUREA [684-93-5], N,N'-DIMETHYLHYDRAZINE [540-73-8], N-BUTYL-N-(4-HYD, Dose [Inhibitor]: 5 PPM IN DIET FOR 25 WK BEGINNING 1 WK POST LAST CARCINOGEN DOSE (STUDY DURATION: 30 WK), Route [Inhibitor]: ORAL, Species: RAT, Strain/Sex: F344/MALE, Target Tissue: Type of Lesion: COLON: ADENOMA, Dose [Carcinogen]: 100 MG/KG BW DEN IP ONCE ON DAY 0, 20 MG/KG BW MNU IP 4X ON DAYS 2, 5, 8, 11, 40 MG/KG BW DMH SC ON DAYS 14, 17, 20, 23;, Dose [Carcinogen]: 100 MG/KG BW DEN IP ONCE ON DAY 0, 20 MG/KG BW MNU IP 4X ON DAYS 2, 5, 8, 11, 40 MG/KG BW DMH SC ON DAYS 14, 17, 20, 23;, Promoter: NONE","6/18 (33.3%), 0/14 (0.0%), 100%, not significant"
C=CCc1ccc(O)c(OC)c1,"tumour outcome (control, treated, inhibition, significance)","Carcinogen: BENZO[A]PYRENE, 50-32-8, Dose [Inhibitor]: 10 MG IN 0.1 ML ACETONE 3/WK ADMINISTERED SIMULTANEOUSLY WITH CARCINOGEN FOR DU RATION OF STUDY (STUDY DURATION: 368 D), Route [Inhibitor]: DERMAL, Species: MOUSE, Strain/Sex: ICR/FEMALE, Target Tissue: Type of Lesion: SKIN: PAPILLOMA, Dose [Carcinogen]: 5 UG IN 0.1 ML ACETONE 3/WK FOR DURATION OF STUDY, Promoter: NONE USED","14/50 (28%), 4/50 (8%), 71%, not calculated"
same,"tumour outcome (control, treated, inhibition, significance)","Carcinogen: BENZO[A]PYRENE, 50-32-8, Dose [Inhibitor]: 10 MG IN 0.1 ML ACETONE 3/WK ADMINISTERED SIMULTANEOUSLY WITH CARCINOGEN FOR DU RATION OF STUDY (STUDY DURATION: 368 D), Route [Inhibitor]: DERMAL, Species: MOUSE, Strain/Sex: ICR/FEMALE, Target Tissue: Type of Lesion: SKIN: SQUAMOUS CARCINOMA, Dose [Carcinogen]: 5 UG IN 0.1 ML ACETONE 3/WK FOR DURATION OF STUDY, Promoter: NONE USED","10/50 (20%), 2/50 (4%), 80%, not calculated"
Brc1cc2c(cc1Br)Oc1cc(Br)c(Br)cc1O2,"tumour outcome (control, treated, inhibition, significance)","Carcinogen: 7,12-DIMETHYLBENZ[A]ANTHRACENE, 57-97-6, Dose [Inhibitor]: 0, 17 NMOL 2/WK APPLIED 1 HR PRIOR TO EACH PROMOTER DOSE FOR 10 WK (STUDY DURATION: 11 WK), Route [Inhibitor]: DERMAL, Species: MOUSE, Target Tissue: Type of Lesion: SKIN: TUMOR, Dose [Carcinogen]: 390 NMOL ONCE, Promoter: 12-O-TETRADECANOYLPHORBOL-13-ACETATE, 16561-29-8","100%, 0%, 100%, not calculated"
OCCOc1ccc(/C(=C(/CCCl)c2ccccc2)c2ccccc2)cc1,"tumour outcome (control, treated, inhibition, significance)","Carcinogen: 7,12-DIMETHYLBENZ[A]ANTHRACENE (DMBA) (57-97-6), Dose [Inhibitor]: 50 MG/KG/D FOR 37 WK (STUDY DURATION: 37 WK), Route [Inhibitor]: ORAL GAVAGE, Species: MOUSE, Strain/Sex: SENCAR/FEMALE, Target Tissue: Type of Lesion: MAMMARY: CARCINOMA, Dose [Carcinogen]: 20 UG/D FOR 6 WKS (STUDY DURATION: 37 WKS), Promoter: MEDROXYPROGESTERONE ACETATE (71-58-9)","10/21 (48%); 1/18 (6%), 88%, p=0.003"
same,"tumour outcome (control, treated, inhibition, significance)","Carcinogen: 7,12-DIMETHYLBENZ[A]ANTHRACENE (DMBA) [57-97-6], Dose [Inhibitor]: 50 MG/KG/D FOR 52 WK (STUDY DURATION: 52 WK), Route [Inhibitor]: ORAL GAVAGE, Species: MOUSE, Strain/Sex: SENCAR/FEMALE, Target Tissue: Type of Lesion: MAMMARY: CARCINOMA, Dose [Carcinogen]: 20 UG/D FOR 6 WKS, Promoter: MEDROXYPROGESTERONE ACETATE (71-58-9)","13/23 (57%); 1/20 (5%), 91%, p=0.0003"
O=C(CCCN=C=S)c1cccnc1,"tumour outcome (control, treated, inhibition, significance)","Carcinogen: 4-(METHYLNITROSAMINO)-1-(3-PYRIDYL)-1-BUTANONE, 64091-91-4, Dose [Inhibitor]: 0, 5 UMOL 1/D FOR 4 D ADMINISTERED PRIOR TO CARCINOGEN DOSE (STUDY DURATION: 116 D), Route [Inhibitor]: GAVAGE, Species: MOUSE, Strain/Sex: STRAIN-A, Target Tissue: Type of Lesion: LUNG: ADENOMA, Dose [Carcinogen]: 10 UMOL IN SALINE ADMINISTERED 2 HR POST LAST AGENT DOSE, Promoter: NONE USED","100%, 96%, 4%, not significant"
same,"tumour outcome (control, treated, inhibition, significance)","Carcinogen: 4-(N-NITROSOMETHYLAMINO)-1-(3-PYRIDYL)-1-BUTANONE, 64091-91-4, Dose [Inhibitor]: 0, 5 UMOL/D FOR 4 CONSECUTIVE DAYS (STUDY DURATION: 16.5 WK), Route [Inhibitor]: GAVAGE, Species: MOUSE, Strain/Sex: STRAIN-A/FEMALE, Target Tissue: Type of Lesion: LUNG: ADENOMA, Dose [Carcinogen]: 10 UMOL ONCE 2 HR POST LAST AGENT DOSE, Promoter: NONE USED","100%, 96%, 4%, not calculated"
